Data as given in US10881110B2, “Herbicidal compositions comprising isoxazolo[5,4-b]pyridines” (BASF SE, priority 2014, dated 2021).

What was measured:
Experiment in all cases: greenhouse post-emergence herbicidal test
PAPRH = type: in vivo, Papaver rhoeas; set-up: key: rating on a scale from 0 to 100
Description: (§1) The culture containers used were plastic pots containing medium loamy sand with approximately 4.6% of humus and 69.9% sand as substrate. The seeds of the test plants were sown separately for each species.
(§2) For the post-emergence treatment, the test plants were grown to a plant height of from 1 to 15 cm, depending on the plant habit, and only then treated with the active compounds which had been suspended or emulsified in water. To this end, the test plants were either sown directly, and grown in the same containers, or they were first grown separately as seedlings and transplanted into the test containers a few days prior to treatment.
(§3) Depending on the species, the plants were kept at 10-25° C. and 20-35° C., respectively.
(§4) The test period extended over 1 to 3 weeks. During this time, the plants were tended and their response to the individual treatments was evaluated 20 days after treatment except mentioned otherwise.
(§5) Evaluation was carried out using a scale from 0 to 100. 100 means no emergence of the plants, or complete destruction of at least the above-ground parts, and 0 means no damage or normal course of growth.
(§6) The respective stated components A and B, and, if appropriate, C, were formulated as a 10% by weight strength emulsion concentrate and, with addition of the amount of solvent system, introduced into the spray liquor used for applying the active compound. In the examples, the solvent used was water.
(§7) In the examples below, using the method of S. R. Colby (1967) “Calculating synergistic and antagonistic responses of herbicide combinations”, Weeds 15, p. 22 ff., the value E, which is expected if the activity of the individual active compounds is only additive, was calculated. E=X+Y−(X·Y/100)

GERDI = type: in vivo, Geranium dissectum; set-up: key to herbicidal activity against GERDI found: rating on a scale from 0 to 100; conditions: post emergence
Summary of the method: (§8)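 Herbicidal effect is rated visually from 0, no damage, to 100, complete kill, twenty days after treating plants of 1–15 cm height. Substrate is medium loamy sand with about 4.6% humus; holding temperature depends on species, either 10-25° C or 20-35° C.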

ECHCG = type: in vivo, Echinochloa crus-galli; set-up: key to herbicidal activity against ECHCG found / herbicidal activity against ECHCH found: scale 0 to 100; conditions: post emergence
Description: as §1, §2, §3, §4, §5, §6, §7

IPOHE = type: in vivo, Ipomoea hederacea; set-up: key to herbicidal activity against IPOHE found: rating on a scale from 0 to 100; conditions: post emergence
Description: as §1, §2, §3, §4, §5, §6, §7

POLCO = type: in vivo, Polygonum convolvulus; set-up: key to herbicidal activity against POLCO found: rating on a scale from 0 to 100
Summary of the method: (§9)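 Post-emergence greenhouse test: plants in loamy sand, sprayed at 1–15 cm height with aqueous spray liquor from 10% emulsion concentrates, kept at 10-25 °C or 20-35 °C by species. Damage scored 0–100 (100 = complete destruction), usually 20 days after treatment. Expected additive effect E from Colby: E=X+Y−(X·Y/100).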

GALAP = type: in vivo, Galium aparine; set-up: key to herbicidal activity against GALAP found: rating on a scale from 0 to 100; conditions: post emergence
Summary of the method: as §9

ERICA = type: in vivo, Conyza canadensis; set-up: key to herbicidal activity against ERICA found: rating on a scale from 0 to 100; conditions: post emergence
Summary of the method: as §8

APESV = type: in vivo, Apera spica-venti; set-up: key to herbicidal activity against APESV found: rating on a scale from 0 to 100; conditions: for herbicidal activity against APESV found: B.95 1 g/ha a.i.
Summary of the method: as §8

MATCH = type: in vivo, Matricaria recutita; set-up: key to herbicidal activity against MATCH found: rating on a scale from 0 to 100
Summary of the method: as §8

ALOMY = type: in vivo, Alopecurus myosuroides; set-up: key to herbicidal activity against ALOMY found: rating on a scale from 0 to 100; conditions: for herbicidal activity against ALOMY found: B.95 1 g/ha a.i.
Summary of the method: as §8

KCHSC = type: in vivo, Kochia scoparia; conditions: Bassia scoparia, post-emergence, 480 h, read-out: herbicidal activity against KCHSC found
Description: as §1, §2, §3, §4, §5, §6, §7

VIOAR = type: in vivo, Viola arvensis; conditions: Viola arvensis, post-emergence, read-out: herbicidal activity against VIOAR found
Summary of the method: as §9

STEME = type: in vivo, Stellaria media; set-up: key: scale 0 to 100
Description: as §1, §2, §3, §4, §5, §6, §7

ABUTH = type: in vivo, Abutilon theophrast; conditions: Abutilon theophrasti, post-emergence, 480 h, read-out: herbicidal activity against ABUTH found
Summary of the method: as §8

[1] = application rate a.i.: I.1 62.5 g/ha, B.40 (imazethapyr) 7.5 g/ha, alone or as mixture (composition 1.40)
[2] = application rate a.i.: I.1 31.25 g/ha, B.40 (imazethapyr) 7.5 g/ha, alone or as mixture (composition 1.40)
[3] = I.1 31.25 g/ha, B.95 1 g/ha a.i.
[4] = I.1 62.5 g/ha, B.95 1 g/ha a.i.
[5] = I.1 62.5 g/ha, B.95 2 g/ha a.i.
[6] = I.1 15.62 g/ha, B.95 1 g/ha a.i.
[7] = I.1 31.25 g/ha, B.95 2 g/ha a.i.
[8] = single active, 50 g/ha a.i., post emergence
[9] = Matricaria chamomilla, post-emergence, 480 h, read-out: herbicidal activity against MATCH found
[10] = a.i. g/ha: I.1 62.5, B.191 225, 20 days after treatment

CCc1cnc(C2=NC(C)(C(C)C)C(=O)N2)c(C(=O)O)c1 (stereo not drawn) [B.40, imazethapyr]
herbicidal activity against PAPRH found (PAPRH; [1]): 45 | herbicidal activity against GERDI found (GERDI; [2]): 95 | herbicidal activity against GERDI found (GERDI; [1]): 90 | herbicidal activity against ECHCG found (ECHCG; [2]): 85 | herbicidal activity against IPOHE found (IPOHE; [1]): 80 | herbicidal activity against POLCO found (POLCO; post emergence, application rate a.i.: I.1 31.25 g/ha, B.40 (imazethapyr) 7.5 g/ha, alone or as mixture (composition 1.40)): 80

C#CCN1C(=O)C(F)(F)Oc2cc(F)c(-n3c(=O)n(C)c(=S)n(C)c3=O)cc21 [B.95, trifludimoxazin]
herbicidal activity against PAPRH found (PAPRH; [3]): 35 | herbicidal activity against PAPRH found (PAPRH; [4]): 35 | herbicidal activity against GERDI found (GERDI; [4]): 65 | herbicidal activity against GERDI found (GERDI; [5]): 65 | herbicidal activity against ECHCG found (ECHCG; [6]): 25 | herbicidal activity against ECHCG found (ECHCG; [5]): 45 | herbicidal activity against GALAP found (GALAP; [3]): 75 | herbicidal activity against GALAP found (GALAP; [7]): 75 | herbicidal activity against GALAP found (GALAP; [5]): 75 | herbicidal activity against ERICA found (ERICA; [6]): 40 | herbicidal activity against ERICA found (ERICA; I.1 15.62 g/ha, B.95 2 g/ha a.i.): 45 | herbicidal activity against ERICA found (ERICA; [3]): 40 | herbicidal activity against ERICA found (ERICA; [7]): 45 | herbicidal activity against ERICA found (ERICA; [4]): 40 | herbicidal activity against ERICA found (ERICA; [5]): 45 | herbicidal activity against APESV found (APESV; post emergence, I.1 15.62 g/ha): 30 | herbicidal activity against APESV found (APESV; post emergence, I.1 62.5 g/ha): 30 | herbicidal activity against MATCH found (MATCH; post emergence, I.1 15.62 g/ha, B.95 1 g/ha a.i.): 30 | herbicidal activity against MATCH found (MATCH; post emergence, I.1 31.25 g/ha, B.95 1 g/ha a.i.): 30 | herbicidal activity against MATCH found (MATCH; post emergence, I.1 31.25 g/ha, B.95 2 g/ha a.i.): 65 | herbicidal activity against MATCH found (MATCH; post emergence, I.1 62.5 g/ha, B.95 2 g/ha a.i.): 65 | herbicidal activity against ALOMY found (ALOMY; post emergence, I.1 31.25 g/ha): 25 | herbicidal activity against ALOMY found (ALOMY; post emergence, I.1 62.5 g/ha): 25

CC(C)N(C(=O)COc1nnc(C(F)(F)F)s1)c1ccc(F)cc1 [B.130, flufenacet]
pest or weed control at 50 g/ha (KCHSC; [8]): 0% | pest or weed control at 50 g/ha (GERDI; Geranium dissectum, post-emergence, 480 h, single active, 50 g/ha a.i., read-out: herbicidal activity against GERDI found): 10% | pest or weed control at 100 g/ha (GERDI; Geranium dissectum, post-emergence, 480 h, single active, 100 g/ha a.i., read-out: herbicidal activity against GERDI found): 10% | pest or weed control at 100 g/ha (ECHCG; Echinochloa crus-galli, post-emergence, 480 h, single active, 100 g/ha a.i., read-out: herbicidal activity against ECHCG found): 65% | pest or weed control at 50 g/ha (IPOHE; Ipomoea hederacea, post-emergence, 480 h, single active, 50 g/ha a.i., read-out: herbicidal activity against IPOHE found): 60% | pest or weed control at 50 g/ha (ERICA; Erigeron canadensis, post-emergence, 480 h, single active, 50 g/ha a.i., read-out: herbicidal activity against ERICA found): 0% | pest or weed control at 50 g/ha (VIOAR; [8]): 80% | pest or weed control at 50 g/ha (POLCO; Fallopia convolvulus, post-emergence, 480 h, single active, 50 g/ha a.i., post emergence, read-out: herbicidal activity against POLCO found): 10% | pest or weed control at 100 g/ha (POLCO; Fallopia convolvulus, post-emergence, 480 h, single active, 100 g/ha a.i., post emergence, read-out: herbicidal activity against POLCO found): 10% | pest or weed control at 50 g/ha (APESV; Apera spica-venti, post-emergence, 480 h, single active, 50 g/ha a.i., post emergence, read-out: herbicidal activity against APESV found): 85% | pest or weed control at 50 g/ha (MATCH; Matricaria chamomilla, post-emergence, 480 h, single active, 50 g/ha a.i., post emergence, read-out: herbicidal activity against MATCH found): 0% | pest or weed control at 100 g/ha (MATCH; Matricaria chamomilla, post-emergence, 480 h, single active, 100 g/ha a.i., post emergence, read-out: herbicidal activity against MATCH found): 20% | pest or weed control at 50 g/ha (ALOMY; Alopecurus myosuroides, post-emergence, 480 h, single active, 50 g/ha a.i., post emergence, read-out: herbicidal activity against ALOMY found): 40% | pest or weed control at 100 g/ha (ALOMY; Alopecurus myosuroides, post-emergence, 480 h, single active, 100 g/ha a.i., post emergence, read-out: herbicidal activity against ALOMY found): 65%

Cc1cnc2c(C(=O)O)c(Cl)ccc2c1 [B.169, quinmerac]
pest or weed control at 62.5 g/ha (KCHSC; post emergence, B.169 62.5 g/ha a.i.): 10% | pest or weed control at 125 g/ha (KCHSC; post emergence, B.169 125 g/ha a.i.): 25% | pest or weed control at 62.5 g/ha (ECHCG; Echinochloa crus-galli, post-emergence, 480 h, B.169 62.5 g/ha a.i., read-out: herbicidal activity against ECHCG found): 0% | pest or weed control at 62.5 g/ha (ERICA; Erigeron canadensis, post-emergence, 480 h, B.169 62.5 g/ha a.i., read-out: herbicidal activity against ERICA found): 65% | pest or weed control at 125 g/ha (ERICA; Erigeron canadensis, post-emergence, 480 h, B.169 125 g/ha a.i., read-out: herbicidal activity against ERICA found): 75% | pest or weed control at 62.5 g/ha (APESV; Apera spica-venti, post-emergence, 480 h, post emergence, B.169 62.5 g/ha a.i., read-out: herbicidal activity against APESV found): 0% | pest or weed control at 62.5 g/ha (ALOMY; Alopecurus myosuroides, post-emergence, 480 h, post emergence, B.169 62.5 g/ha a.i., read-out: herbicidal activity against ALOMY found): 0%

C/C(=N\NC(=O)Nc1cc(F)cc(F)c1)c1ncccc1C(=O)O [B.174, diflufenzopyr]
pest or weed control at 20 g/ha (KCHSC): 65% | herbicidal activity against STEME found (STEME; B.174 alone 40 g/ha a.i.): 50 | pest or weed control at 20 g/ha (ABUTH): 85% | pest or weed control at 40 g/ha (VIOAR): 65% | pest or weed control at 20 g/ha (POLCO; Fallopia convolvulus, post-emergence, 480 h, read-out: herbicidal activity against POLCO found): 30% | pest or weed control at 20 g/ha (APESV; Apera spica-venti, post-emergence, 480 h, read-out: herbicidal activity against APESV found): 0% | pest or weed control at 20 g/ha (MATCH; [9]): 70% | pest or weed control at 40 g/ha (MATCH; [9]): 70% | pest or weed control at 20 g/ha (ALOMY; Alopecurus myosuroides, post-emergence, 480 h, read-out: herbicidal activity against ALOMY found): 0%

CCCCCCCCSC(=O)Oc1cc(Cl)nnc1-c1ccccc1 [B.191, pyridate]
herbicidal activity against STEME found (STEME; [10]): 0% | herbicidal activity against GALAP found (GALAP; [10]): 90% | herbicidal activity against ERICA found (ERICA; [10]): 70% | herbicidal activity against MATCH found (MATCH; post emergence, a.i. g/ha: I.1 62.5, B.191 225, 20 days after treatment): 20%
